This experiment addresses T1, T1R umami taste receptor (Homo sapiens, UniProt Q7RTX0+Q7RTX1).
T1 sequence (Q7RTX1 21-841): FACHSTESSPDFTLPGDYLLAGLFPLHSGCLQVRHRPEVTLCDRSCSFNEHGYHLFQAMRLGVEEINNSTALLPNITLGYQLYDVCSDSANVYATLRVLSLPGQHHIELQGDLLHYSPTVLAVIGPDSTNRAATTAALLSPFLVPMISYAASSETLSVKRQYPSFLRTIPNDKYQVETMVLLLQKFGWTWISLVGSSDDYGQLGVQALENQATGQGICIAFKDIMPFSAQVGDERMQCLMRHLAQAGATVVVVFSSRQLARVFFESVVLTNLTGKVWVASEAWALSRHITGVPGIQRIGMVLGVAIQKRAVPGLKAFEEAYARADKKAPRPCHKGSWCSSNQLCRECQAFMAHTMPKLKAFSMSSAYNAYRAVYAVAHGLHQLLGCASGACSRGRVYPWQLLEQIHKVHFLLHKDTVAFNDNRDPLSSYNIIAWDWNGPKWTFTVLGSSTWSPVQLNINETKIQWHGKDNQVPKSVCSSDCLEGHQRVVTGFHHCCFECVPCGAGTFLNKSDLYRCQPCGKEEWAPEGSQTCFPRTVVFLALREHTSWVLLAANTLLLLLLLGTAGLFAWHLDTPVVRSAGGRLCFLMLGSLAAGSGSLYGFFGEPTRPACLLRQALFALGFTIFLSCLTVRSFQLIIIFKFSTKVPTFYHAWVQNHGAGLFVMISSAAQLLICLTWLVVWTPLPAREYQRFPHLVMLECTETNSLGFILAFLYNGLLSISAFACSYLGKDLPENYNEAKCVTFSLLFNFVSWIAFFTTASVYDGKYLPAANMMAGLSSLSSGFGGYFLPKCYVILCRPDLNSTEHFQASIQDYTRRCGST
T1 sequence (Q7RTX0 21-852): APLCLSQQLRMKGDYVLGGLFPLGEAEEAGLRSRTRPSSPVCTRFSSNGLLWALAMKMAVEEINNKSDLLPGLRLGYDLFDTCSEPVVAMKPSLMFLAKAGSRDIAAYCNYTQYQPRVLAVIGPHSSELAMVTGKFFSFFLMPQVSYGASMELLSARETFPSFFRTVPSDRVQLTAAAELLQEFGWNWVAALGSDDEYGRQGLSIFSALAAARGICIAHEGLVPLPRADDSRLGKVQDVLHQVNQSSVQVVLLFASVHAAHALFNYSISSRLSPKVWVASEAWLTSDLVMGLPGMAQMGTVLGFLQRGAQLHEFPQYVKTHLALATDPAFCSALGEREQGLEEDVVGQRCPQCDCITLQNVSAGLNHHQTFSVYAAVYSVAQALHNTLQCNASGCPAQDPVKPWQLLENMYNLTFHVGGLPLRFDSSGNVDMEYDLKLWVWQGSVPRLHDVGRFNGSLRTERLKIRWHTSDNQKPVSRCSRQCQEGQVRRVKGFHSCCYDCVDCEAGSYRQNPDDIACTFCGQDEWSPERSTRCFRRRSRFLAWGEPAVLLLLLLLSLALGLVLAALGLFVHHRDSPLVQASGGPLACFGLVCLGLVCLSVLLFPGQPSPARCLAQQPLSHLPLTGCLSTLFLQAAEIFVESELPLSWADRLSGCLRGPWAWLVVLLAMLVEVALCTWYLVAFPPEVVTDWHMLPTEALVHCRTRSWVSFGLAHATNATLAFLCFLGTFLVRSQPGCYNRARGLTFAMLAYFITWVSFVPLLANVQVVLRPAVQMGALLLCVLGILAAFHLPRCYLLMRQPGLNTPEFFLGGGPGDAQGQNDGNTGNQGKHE
Nature of the experiment: in vitro cell-based assay, enhancement of MSG binding. The note with it: cells that express the T1R umami taste receptor. On the procedure: Each of the compounds set forth in Table 2 were synthesized according to one of the general procedures set forth above in Example 1 or 2. Thereafter, the compounds were tested in an in vitro cell-based assay having cells that express the T1R umami taste receptor. Dose-binding curves were recorded and the EC50 was determined for enhancement of MSG binding. Table 2 sets forth the calculated EC50 values for certain tested compounds.
Broadly, the EC50 is the concentration at which the effect is half-maximal. As to `C/C=C(\C)C(=O)NCCC[C@H](NC(=O)/C=C/c1ccccc1OC)C(=O)OC` [Compound 124], the EC50 came to 500 nM.
Take `C/C=C(\C)C(=O)NCCC[C@H](NC(=O)c1ccccc1)C(=O)OCC` [Compound 107]: the EC50 stood at 8000 nM.
In the case of `CCOC(=O)[C@H](CCCNC(=O)c1ccccc1)NC(=O)c1ccccc1` [Compound 103], the EC50 came out at 2000 nM.
Take `C/C=C(\C)C(=O)NCCC[C@H](NC(=O)c1ccc(OC)cc1)C(=O)OCC` [Compound 111]: the EC50 worked out at 400 nM.
As for `C/C=C(\C)C(=O)NCCC[C@H](NC(=O)c1ccc(C)c(C)c1)C(=O)OC` [Compound 112], the EC50 was less than 100 nM.
Take `C/C=C(\C)C(=O)NCCC[C@H](NC(=O)c1ccc(C)c(C)c1)C(=O)OCC` [Compound 113]: the EC50 is 500 nM.
Next, `C/C=C(\C)C(=O)NCCC[C@H](NC(=O)/C=C/c1ccccc1)C(=O)OC` [Compound 122]: 200 nM; `O=C(NCCC[C@H](NC(=O)c1ccccc1)C(=O)O)c1ccccc1` [Compound 101]: greater than 50000 nM.
Regarding `C/C=C(\C)C(=O)NCCC[C@H](NC(=O)c1ccc(C)cc1)C(=O)OC` [Compound 108], the EC50 is 2500 nM.
On to `C/C=C(\C)C(=O)NCCC[C@H](NC(=O)c1ccccc1)C(=O)OC` [Compound 106], for which the EC50 came out at 3500 nM.
For the compound `C/C=C(\C)C(=O)NCCC[C@H](NC(=O)/C=C/c1ccc(OC)cc1)C(=O)OC` [Compound 128], the EC50 amounted to 640 nM.
As to `C/C=C(\C)C(=O)NCCC[C@H](NC(=O)c1ccc2c(c1)OCO2)C(=O)OCC` [Compound 121], the EC50 was determined as 500 nM.
With `COC(=O)[C@H](CCCNC(=O)c1ccccc1)NC(=O)c1ccccc1` [Compound 102], the EC50 is 30000 nM.
With `C/C=C(\C)C(=O)NCCC[C@H](NC(=O)/C=C/c1ccc(OC)cc1)C(=O)OCC` [Compound 129] the figure was 60 nM.
On to `C/C=C(\C)C(=O)NCCC[C@H](NC(=O)c1ccc(C)cc1)C(=O)OCC` [Compound 109], for which the EC50 stood at 1500 nM.
As for `C/C=C(\C)C(=O)NCCC[C@H](NC(=O)/C=C/c1ccc(OC)cc1OC)C(=O)OCC` [Compound 133], the EC50 stood at 400 nM.
For the compound `C/C=C(\C)C(=O)NCCC[C@H](NC(=O)c1ccc(OC)cc1)C(=O)OC` [Compound 110], the EC50 came to 700 nM.
With `CCOC(=O)[C@H](CCCNC(=O)c1ccc2c(c1)OCO2)NC(=O)c1ccc2c(c1)OCO2` [Compound 105] the figure was 35000 nM; with `C/C=C(\C)C(=O)NCCC[C@H](NC(=O)c1cc(C)c(C)c(C)c1)C(=O)OCC` [Compound 115], 40 nM; with `C/C=C(\C)C(=O)NCCC[C@H](NC(=O)/C=C/c1ccccc1)C(=O)OCC` [Compound 123], 600 nM.
For `CCOC(=O)[C@H](CCCNC(=O)c1ccc(C)c(C)c1)NC(=O)c1ccc(C)c(C)c1` [Compound 104], the half-maximal effective concentration (EC50) was 14000 nM.
For `C/C=C(\C)C(=O)NCCC[C@H](NC(=O)c1cc(C)c(C)c(C)c1)C(=O)OC` [Compound 114], the half-maximal effective concentration (EC50) was determined as 400 nM.
On to `C/C=C(\C)C(=O)NCCC[C@H](NC(=O)/C=C/c1ccc(OC)cc1OC)C(=O)OC` [Compound 132], for which the EC50 amounted to 100 nM.
